Experimental data published in patent US20060008800A1, “Unc-13 in the modulation of neurotransmission and secretion events” (priority 2002, published 2006).

Tests used:
[1] = test system: NMDA receptors; assay: Use dependent block of synaptic NMDA EPSCs by MK-801; type: cell-based, mouse; conditions: 5 μM; 120 evoked NMDA EPSCs; Munc13-1 deficient neurons
[2] = test system: NMDA receptors; conditions: cited from earlier work
[3] = test system: hippocampal neurons; assay: β-phorbol ester induced potentiation of evoked synaptic currents in autaptic neuron cultures (patch clamp); type: cell-based, mouse; conditions: for β-phorbol ester induced EPSC potentiation (synaptic potentiation): PDBU 100-1000 nM; for EPSC potentiation: PDBU
Method: (§1) Microisland culture preparation was performed according to Bekkers and Stevens (1991). The extracellular medium contained (mM): NaCl, 167; KCl, 2.4; HEPES, 10; glucose, 10; CaCl2, 4; MgCl2, 4 (340 mOsm, pH 7.3). Solutions were applied and recordings were performed as described in Rosenmund (1995). To examine synaptically activated currents, experiments were performed using recurrent synapses (autapses) or only single autaptic neuroeses on microisland cultures at room temperature (=24° C.). Pipette solutions included (mM): KCl, 120, or K-Gluconate, 125; HEPES, 10; EGTA, 1; MgCl2, 4.6; Na4ATP, 4; Creatinephosphate, 15; creatinephosphokinase 50 U/ml (320 mOsm, pH 7.3). Wild type and Munc13-1 deficient glutamatergic hippocampal neurons were used to study the characteristics of Munc13-1 and Munc13-1 independent synapses. For these purposes, individual neurons grown on microisland beds of glial cells (Bekkers, 1991) were employed. In this autaptic culture system, where isolated nerve cells make multiple synaptic contacts, so called autapses, with their own dendritic trees, spontaneous transmitter release, release of the readily releasable vesicle pool induced by hypertonic solutions, and action potential evoked release arise from the same synapse population and can be measured readily with patch clamp techniques. Autaptic responses were obtained after brief (1-2 ms) somatic depolarization. This induces an unclamped action potential that is followed by a postsynaptic response with a delay of 2-4 ms. Excitatory, glutamatergic and inhibitory, GABAergic synaptic currents were distinguished by their characteristic pharmacological and kinetic properties. Excitatory glutamatergic cells were mainly characterized because the differential equipment of presynaptic terminals formed by the same axon with Munc13 priming factors is not apparent in GABAergic neurons.
Design of and infection with Semliki Forest Virus was done according to published procedures (Betz, 2001; Ashery, 2000). Cells were measured 22-26 h after infection.
Routinely, cells from Munc13-1^H567K/Munc13-1^H567K mutants were analyzed 12-20 day after plating and compared to wild type control cells obtained from littermates. In some experiments we employed Munc13-1/Munc13-2 double deficient neurons as model cells to study the characteristics of the Munc13-1^H567K variant in comparison to wild type Munc13-1 following overexpression using the Semliki-Forest-Virus system. In contrast to Munc13-1 deficient glutamatergic hippocampal neurons, which still show measurable glutamate release (10% of wild type levels; Augustin, 1999b), double homozygous Munc13-1/Munc13-2 deletion mutant neurons are characterized by a complete lack of spontaneous and evoked transmitter release but can be rescued by reintroduction of Munc13 proteins. This rescue approach was persued in Munc13-1/Munc13-2 double mutant neurons instead of breeding the Munc13-1^H567K/Munc 3-1^H567K mutation into the Munc13-2 deletion mutant background because it was much faster and allowed the direct comparison of additional mutant (Betz, 2001) and wild type Munc13-1 variants in the same cultures. Autaptic responses were obtained after brief (1-2 ms) somatic depolarization. This induces an unclamped action potential that is followed by a postsynaptic response with a delay of 2-4 ms. Excitatory, glutamatergic synaptic currents were identified by their characteristic pharmacological and kinetic properties.

[4] = test system: hippocampal neurons; assay: Effect of PDBU on mEPSC frequency in autaptic neurons; type: cell-based, mouse; conditions: 1 μM PDBU
Method: as §1, with “For these purposes, individual neurons grown on microisland beds of glial cells (Bekkers, 1991) were employed.” left out, “Autaptic responses were obtained after brief (1-2 ms) somatic depolarization. This induces an unclamped action potential that is followed by a postsynaptic response with a delay of 2-4 ms. Excitatory, glutamatergic and inhibitory, GABAergic synaptic currents were distinguished by their characteristic pharmacological and kinetic properties. Excitatory glutamatergic cells were mainly characterized because the differential equipment of presynaptic terminals formed by the same axon with Munc13 priming factors is not apparent in GABAergic neurons.” left out
Routinely, cells from Munc13-1^H567K/Munc13-1^H567K mutants were analyzed 12-20 day after plating and compared to wild type control cells obtained from littermates. […]

[5] = test system: hippocampal neurons; assay: Readily releasable vesicle pool size by hypertonic sucrose application; type: cell-based, mouse; conditions: in response to PDBU
Method: Microisland culture preparation was performed according to Bekkers and Stevens (1991). The extracellular medium contained (mM): NaCl, 167; KCl, 2.4; HEPES, 10; glucose, 10; CaCl2, 4; MgCl2, 4 (340 mOsm, pH 7.3). Solutions were applied and recordings were performed as described in Rosenmund (1995). To examine synaptically activated currents, experiments were performed using recurrent synapses (autapses) or only single autaptic neuroeses on microisland cultures at room temperature (=24° C.). Pipette solutions included (mM): KCl, 120, or K-Gluconate, 125; HEPES, 10; EGTA, 1; MgCl2, 4.6; Na4ATP, 4; Creatinephosphate, 15; creatinephosphokinase 50 U/ml (320 mOsm, pH 7.3). […] In this autaptic culture system, where isolated nerve cells make multiple synaptic contacts, so called autapses, with their own dendritic trees, spontaneous transmitter release, release of the readily releasable vesicle pool induced by hypertonic solutions, and action potential evoked release arise from the same synapse population and can be measured readily with patch clamp techniques. […]
Synaptic depression in wild type neurons has been interpreted as depletion of the readily releasable pool of vesicles because pool sizes and synaptic responses are reduced in parallel during high frequency stimulation. […]

[6] = test system: Munc13-1 deficient hippocampal neurons; assay: EPSC augmentation following high frequency action potential trains in Munc13-1 deficient, Munc13-2 dependent neurons; type: cell-based, mouse; conditions: 1 μM PDBU; Munc13-2 dependent cells
[7] = test system: PKCs; type: cell-based, mouse
[8] = 1 μM PDBU, Munc13-1^H567K/Munc13-1^H567K neurons
[9] = Munc13-1 dominated wild type synapses
[10] = after 1 μM PDBU, wildtype neurons

## C[C@]12N[C@H](Cc3ccccc31)c1ccccc12 [MK-801]
[1]
  reduction of the NMDA EPSC component: more than 90%
[2]; Munc13-1 deficient cells
  synaptic NMDA receptors activated and blocked during synaptic activity: 20%
[2]; wild type cells
  cellular NMDA receptors activated and blocked during synaptic activity: 75%

## CCCC(=O)O[C@@H]1[C@@H](C)[C@@]2(O)[C@@H](C=C(CO)C[C@]3(O)C(=O)C(C)=C[C@@H]23)[C@@H]2C(C)(C)[C@]12OC(=O)CCC [PDBU]
[3]; 1 μM PDBU alone, wild type neurons (GÖ 6983 experiment)
  β-PE induced increase in evoked EPSCs: 160±9 % of baseline values
[3]; 1 μM PDBU for 1 min, wild type neurons, before bisindolylmaleimide I
  increase of evoked EPSC amplitudes over baseline value: 90±19%
[3]; 1 μM PDBU for one minute, wildtype neurons
  evoked EPSC amplitudes: 191±17 % of baseline values
[3]; 1 μM PDBU, Munc13-1/Munc13-2 double deficient cells overexpressing Munc13-1^H567K
  evoked EPSCs: 108±5 % of control levels
[3]; 1 μM PDBU, Munc13-1/Munc13-2 double deficient neurons overexpressing wild type Munc13-1
  evoked EPSCs: 246±22 % of control levels
[3]; [8]
  evoked EPSC amplitudes: 131±7 % of baseline values
  time constant of increase in evoked EPSC amplitudes: 16 s
[3]; 1 μM PDBU, wildtype neurons
  time constant of enhancement of evoked EPSC amplitudes: 8 s
[3]; PDBU 1 μM, rescue with C1-DAG binding mutant ubMunc13-2(H491K)
  phorbol ester induced potentiation of evoked responses: 1.04±0.03
[3]; PDBU 1 μM, rescue with Calmodulin binding deficient mutant ubMunc13-2(W387R)
  phorbol ester induced potentiation of evoked responses: 2.9±0.4 fold
[3]; Munc13-1 deficient, Munc13-2 dependent synapses
  β-phorbol ester induced EPSC potentiation (synaptic potentiation): 570±118%
[3]; [9]
  β-phorbol ester induced EPSC potentiation (synaptic potentiation): 199±25%
[3]; PDBU at 1 μM for 1 minute, double deficient neurons rescued with wildtype ubMunc13-2
  phorbol ester induced potentiation of evoked responses: 3.9±1.1 fold
[3]; Munc13-1/Munc13-2 double deficient neurons rescued with Munc13-1
  EPSC potentiation: 247±22%
[3]; Munc13-1/Munc13-2 double deficient neurons rescued with ubMunc13-2
  EPSC potentiation: 510±83%
[3]; [10]
  time constant of return to baseline after removal: 27 s
  time for synaptic amplitude to return to baseline after removal: 3 to 4 min
[3]; compared with EPSCs, wild type and Munc13-1 deficient neurons
  β-Phorbol ester induced potentiation of IPSCs: much less pronounced
[3]; rescue with ubMunc13-2 deletion construct lacking the first 400 amino acids
  phorbol ester response: 4.5±1.3 fold increase
[4]; Munc13-1^H567K/Munc13-1^H567K cells
  mEPSC frequency: 127±16 % of control levels
[4]; wildtype neurons
  mEPSC frequency: 239±34 % of control levels
[5]; [9]
  increase of readily releasable vesicle pool: 11±5%
[5]; Munc13-2 dependent synapses
  increase of readily releasable vesicle pool: 30±15%
[6]
  additivity of β-phorbol ester induced potentiation and train induced augmentation: not additive
[7]
  phosphorylation of Munc13-1: weakly phosphorylated in a constitutive, β-PE independent manner
  phosphorylation of SNAP-25 and GAP-43: strongly phosphorylated
